Earlier results in patent publication US6825040B2, “Method of using a vapor acid test kit” (Mainstream Engineering Corporation, priority 1995, dated 2004).
Like-named read-outs stand apart in the source and are kept apart here.

Columns and labels:
[1] = pH range of the indicator colour change
[2] = negative log of the dissociation equilibrium constant of the indicator

Row | Structure (SMILES) | pH Range [1] | pKa [2] | pH Range ([1]; listed as Thymol blue)
1 | O=S1(=O)OC(c2ccc(O)c(Br)c2)(c2ccc(O)c(Br)c2)c2ccccc21 [Bromophenol red, Dibromophenolsulfonephthalein] | 5.2 to 6.8 | – | –
2 | O=S1(=O)OC(c2ccc(O)c(Cl)c2)(c2ccc(O)c(Cl)c2)c2ccccc21 [Chlorophenol red, Dichlorophenolsulfonephthalein] | 5.4 to 6.8 | 6.0 | –
3 | CN(C)c1ccc(/N=N/c2ccccc2C(=O)O)cc1 [Methyl red, o-Carboxybenzeneazodimethylaniline] | 4.4 to 6.2 | 4.95 | –
4 | O=C1OC(c2ccc(O)cc2)(c2ccc(O)cc2)c2ccccc21 [Phenolphthalein] | 8.0 to 10.0 | 9.4 | –
5 | O=S(=O)([O-])c1ccc(N=Nc2ccc(Nc3ccccc3)cc2)cc1.[Na+] [Tropeolin 00, Diphenylamino-p-benzene sodium sulfonate] | 1.3 to 3.2 | – | –

Second part, the molecule after the results:

Row | pH Range [1] | pKa [2] | pH Range ([1]; listed as Thymol blue) | Structure (SMILES)
6 | 4.0 to 6.8 | 4.58 | – | Cc1c(C2(c3cc(Br)c(O)c(Br)c3C)OS(=O)(=O)c3ccccc32)cc(Br)c(O)c1Br [Bromocresol green, Tetrabromo-m-cresolsulfonephthalein]
7 | 5.2 to 6.8 | – | – | Cc1cc(C2(c3cc(C)c(O)c(Br)c3)OS(=O)(=O)c3ccccc32)cc(Br)c1O [Bromocresol purple, Dibromo-o-cresolsulfonephthalein]
8 | 6.2 to 7.6 | – | – | Cc1c(C2(c3cc(C(C)C)c(O)c(Br)c3C)OS(=O)(=O)c3ccccc32)cc(C(C)C)c(O)c1Br [Bromothymol blue, Dibromothymolsulfonephthalein]
9 | 3.1 to 4.4 | 3.40 | – | CN(C)c1ccc(N=Nc2ccc(S(=O)(=O)[O-])cc2)cc1.[Na+] [Methyl orange, Dimethylaminoazobenzene sodium sulfonate]
10 | 1.2 to 2.8 | – | 8.0 to 9.6 | Cc1cc(O)c(C(C)C)cc1C1(c2cc(C(C)C)c(O)cc2C)OS(=O)(=O)c2ccccc21 [Thymol blue (acid range), Thymolsulfonephthalein]
11 | 9.4 to 10.6 | 10.0 | – | Cc1cc(O)c(C(C)C)cc1C1(c2cc(C(C)C)c(O)cc2C)OC(=O)c2ccccc21 [Thymolphthalein]
12 | 11.0 to 13.0 | – | – | O=S(=O)([O-])c1ccc(N=Nc2ccc(O)cc2O)cc1.[Na+] [Tropeolin 0, p-Sulfobenzeneazoresorcinol]
